# Patent publication US8557767B2, “Synthetic apolipoprotein E mimicking polypeptides and methods of use” (UAB Research Foundation, priority 2007, dated 2013)
# Key:
# [1] = experiments where atherogenic lipoprotein reduction was observed; CLiP; cited from earlier work
# apo E null mice = assay: Plasma cholesterol in apo E null mice after i.v. dual-domain peptides; type: in vivo; details: iv, n=4
# Description: The peptides represented are Ac-hE-18A-NH2, Ac-hE4F-NH2, and Ac-hE-Sc2F-NH2. Peptides Ac-hE-18A-NH2, Ac-hE-4F-NH2 and Ac-hE-Sc18A were administered (i.v.) to apo E null mice (n=4) and plasma cholesterol values were determined at before administration (0 min), 5 min and 2 h after administration.
# As described above, peptides Ac-hE-18A-NH2, Ac-hE-4F-NH2 and Ac-hE-Sc18A were administered (iv) to apo E null mice (n=4) and plasma cholesterol values were determined at before administration (0 min), 5 min and 2 h after administration.
# VCAM-1 = assay: LPS-induced VCAM-1 expression in HUVEC (Western blot); type: cell-based, human; details: peptide 50 ug/ml, LPS 1 ug/ml, 6 h exposure
# Source text: HUVECs were challenged with the peptide alone, peptide +LPS and LPS. LPS induces expression of VCAM-1 (lane 3).
# (§1) The effect of the peptide on the inflammatory response of bacterial lipopolysaccaride (LPS), a potent inducer of cytokines and cell adhesion molecules was also examined.
# [2] = system: THP-1 monocyte derived macrophages; assay: Secretion of de novo synthesized apo E by THP-1 monocyte derived macrophages; type: cell-based; details: 25 ug/10^6 cells, 35S-methionine, densitometry
# Description: Bands were developed by autoradiography and quantitated by densitiometry.
# THP-1 monocyte derived macrophages were metabolically labeled with ^35S-methionine in RPMI medium containing FBS. Macrophages (10^6 cells) were treated with the dual-domain peptide (25 tjg/10^6 cells) for 5. Conditioned medium was collected and cells were washed with cold PBS. Preparative cocktail containing MEM, plus lupeptin (50 tjg/ml), pepstatin A (50 tjg/ml), and aprotinin (100 kallikrein inactivating units/ml) were added to the medium to preserve oxidative and proteolytic damage. The medium from control cells and peptide-treated medium were concentrated to equal volume and loaded quantitatively on SDS-polyacrylamide gels (4 to 20% PAGE for 2.5 h at 4° C. at 125 volts). The gel was exposed to x-ray film for overnight.
# [3] = system: C57BL/6 on normal chow, LDL-R(null) mice; assay: Plasma cholesterol in C57BL/6 on normal chow and LDL-R(null) mice; type: in vivo; details: LDL-R(null) on normal chow or on a Western diet
# Source text: (§2) Although Ac-hE-18A-NH2 enhanced the hepatic uptake and degradation of atherogenic lipoproteins in apo E null mice, dual knockout mice (LDL-R(null)-apo E(null)), and C57BL/6 on an atherogenic diet, the peptide had no effect on the plasma cholesterol levels of C57BL/6 on normal chow, LDL-R(null) on normal chow or on a Western diet. […] However, the peptide is able to associate with human LDL (containing apo B-100) and VLDL and is able to enhance uptake and degradation of atherogenic human lipoproteins in HepG2 cells and in LDL-R (null) mouse model (Garber, D. W. et al. Atherosclerosis. 163:229-237 2003). The reason for the difference in the properties of apo B-100-containing human LDL and mouse LDL is not clear.
# [4] = system: atherogenic apo B-containing lipoproteins in human plasma; details: cited from earlier work
# [5] = system: B-100-containing particles; assay: Association of peptide with mouse apo B-100-containing particles; type: binding; details: LDL-R (null) and C57BL6 on normal chow
# Source text: as §2
# HepG2 cells = assay: Apo A-I / prebeta-HDL secretion by HepG2 cells; type: cell-based
# [6] = system: monocyte chemotaxis protein-1 (MCP-1); assay: LPS-induced MCP-1 in HUVEC; type: cell-based, human
# Source text: as §1
# [7] = system: NZW rabbits on 1% cholesterol diet; assay: Peptide administration to NZW rabbits on 1% cholesterol diet; type: in vivo, rabbit
# Description: Administration of Ac-hE18A-NH2 to high fat diet administered rabbits with initial cholesterol values in the range of 600 mg/dl (1 week on 1% cholesterol diet). […] A 50% decrease in plasma cholesterol was observed after administration of the peptide.
# This occurs through a lowering of plasma lipid hydroperoxide levels concomitant with a significant increase in the plasma paraoxonase (PON-1) activity. In the WHHL model, the LDL-R pathway is compromised, thus the accelerated atherogenic lipoprotein clearance is likely via the cell surface HSPG-mediated pathway, as described earlier in murine models (Garber, D. W. et al. Atherosclerosis. 163:229-237 2003).
# It has been shown that very small amounts of D-4F, a class A amphipathic helical peptide, modifies several HDL properties (Navab, M., et al. Circulation 109:3215-3220 2004). […] NZW rabbits have been studied for hypercholesterolemia and relative LDL and β-VLDL production using diets containing different amounts of cholesterol (Holvoet, P. et al. Arterioscl. Thromb. Vasc. Biol. 17:2376-2382 1997). Thus, with 0.125% (w/w) cholesterol diet, LDL cholesterol levels increase; with 0.5% and higher cholesterol levels in the diet, […]-VLDL (containing apo B-100) increases dramatically. These β-VLDL particles contain increased amounts of oxidized lipids, thus enhancing the progression of atherosclerosis (Holvoet, P. et al. Arterioscl. Thromb. Vasc. Biol. 17:2376-2382 1997). To assess the effect of the peptide in this rabbit model, a 1% cholesterol diet fed NZW rabbits were utilized.
# Rabbits responding to high cholesterol diet were randomized one week after the start of the diet to select rabbits with similar response (similar amounts of total plasma cholesterol). […] After 14 days from the first administration, plasma samples were taken from both the peptide-administered and saline administered (control) rabbits (n=3 in each group). The plasma samples from the peptide administered rabbits were not turbid, whereas the plasma samples from control rabbits were turbid. […] A second dose of peptide was administered 15 days after the first treatment. Since the cholesterol levels remained low two weeks after the second administration in peptide-administered rabbits, these and saline administered rabbits were sacrificed 51 days after the initiation of the diet. Aorta from the peptide administered and control rabbits were stained with Oil Red O. Aorta from the peptide administered rabbits had 40-50% less lesion than the control rabbit aorta.
# Therefore, possible reasons for the clearance of atherogenic lipoproteins can be in addition to rapid hepatic clearance similar to the properties of apo E, modulation of HDL properties or synthesis of macrophage apo E. If this is true, this peptide may also exert its effect on endothelial function. Indeed it was observed that there is a recovery of endothelial function as studied by the acetylcholine dose-dependent aortal relaxation (FIG. 13). […] It is possible that lipid lowering can cause reduction of oxidative stress and thus inhibition of endothelial activation.
# Results observed in HepG2 cells indicate that peptide associates with apo B-containing plasma lipoproteins to incorporate positive charges on the lipoprotein surface. This enables the apo B-containing lipoproteins to interact with heparan sulphate proteoglycans (HSPGs). The effect of these peptides on the mode of reduction of plasma cholesterol levels in mouse models and the two rabbit models can be determined. In NZW rabbits fed a 1% cholesterol-diet, a reduction of plasma cholesterol is observed which lasts for 14 days after the peptide administration; whereas in the WHHL rabbits, the reduction is initially rapid and returns to original levels within 3 days. Since the WHHL rabbit model is LDL-receptor defective, the differential effects of the peptide in two models can be due to differences in the receptor-mediated clearance pathways of atherogenic lipoproteins. […]
substance,measurement,setting,value
Ac-LRKLRKRLLRDWLKAFYDKVAEKLKEAF-NH2 [Ac-hE-18A-NH2],effect on HDL levels,[1],did not reduce HDL levels
same,reduction in plasma cholesterol levels at 2 h time point,apo E null mice,large reduction
same,inhibition of LPS-induced VCAM-1 expression,VCAM-1,more than 80%
same,intensity of 36 kDa apo E band relative to medium of control cells,[2],4 times
same,plasma clearance of the peptide,3 mg/kg radiolabelled peptide,much faster than that observed in WHHL rabbits
same,plasma residence time t1/2,rabbits,1 to 2 min
same,effect on plasma cholesterol levels,[3],no effect
same,association with atherogenic apo B-containing lipoproteins,[4],associates with atherogenic apo B-containing lipoproteins
same,association with B-100-containing particles,[5],not able to associate
same,prebeta-HDL production,"HepG2 cells; equal amount on weight basis (50 ug/ml), first overnight incubation",produced preβ-HDL
same,prebeta-HDL amount after second and third overnight incubation,HepG2 cells; fresh cell medium without peptide,produced significant amounts
same,effect on MCP-1,[6],also inhibited
same,less aorta lesion than control (Oil Red O),"[7]; 3 mg/kg i.v. twice, sacrificed 51 days after initiation of diet",40-50%
same,amounts of VLDL and LDL in plasma,"[7]; 3 mg/kg i.v., 14 days after first administration, n=3",Significantly decreased
same,lesion by en face analysis after 50 days,"[7]; 3 mg/kg, saline-treated control ~50% lesion coverage",little to no lesion
same,decrease in plasma cholesterol,"[7]; 5 mg/kg iv two times, n=4 (FIG. 11 legend)",50%
same,plasma cholesterol values at end of 14 days,"[7]; 5 mg/kg iv two times, n=4, control in the range of 2000 mg/dl",~1000 mg/dL
same,plasma cholesterol less than in control rabbits at end of experiment,[7]; 7.5 mg/kg i.v. in two intervals one week apart,50%
same,duration of reduction of plasma cholesterol after peptide administration,[7]; NZW rabbits fed 1% cholesterol diet,14 days
same,"endothelial function, acetylcholine dose-dependent aortal relaxation",[7]; aortal rings after 51 days of 1% cholesterol diet,vascular response almost similar to aortas obtained from rabbits on a normal diet
same,time for which total plasma cholesterol levels were significantly decreased,[7]; single intravenous administration 3 mg/kg,15 days
